According to publication PMC3735122 (mBio, 2013):

How the values were obtained:
Type in all cases: cell-based, influenza virus H7N9
[1] = test system: A/Shanghai/2/2013 virus; test: organism not typed
[2] = test system: A/Shanghai/1/2013-NA^R292 (WT no. 6) virus; test: organism not typed
[3] = test system: A/Shanghai/1/13 virus (mixed R/K at NA residue 292)
[4] = MDCK, read-out: 90% effective concentration [EC90]

In the case of `CCC(CC)O[C@@H]1C=C(C(=O)O)C[C@H](N)[C@H]1NC(C)=O` [oseltamivir carboxylate], the “concentration at which replication was completely inhibited” value [1] was 31.25 µM, the “concentration at which replication was completely inhibited” value [2] was 250 µM and the “sensitivity in MDCK cells compared to the A/Shanghai/2/2013 virus” value [2] was “reduced sensitivity”.
For `CC(=O)N[C@H]1[C@H]([C@H](O)[C@H](O)CO)OC(C(=O)O)=C[C@@H]1N=C(N)N` [zanamivir], the “concentration at which replication was completely inhibited” value [1] was 125 µM, the “concentration at which replication was completely inhibited” value [2] was > 125 µM and the “sensitivity in MDCK cells compared to the A/Shanghai/2/2013 virus” value [2] was “reduced sensitivity”.
`NC(=O)c1nc(F)c[nH]c1=O` [favipiravir] was tested, and the “sensitivity in MDCK cells relative to the A/Shanghai/2/2013 virus” value [3] was “comparable dose-response curves”, the EC90 [1, 4] was 1.43 µM and the EC90 [2, 4] was 10.4 µM.
